According to US20180002319A1, “MACROCYCLIC PICOLINAMIDE COMPOUNDS WITH FUNGICIDAL ACTIVITY” (DOW AGROSCIENCES LLC, priority 2014, published 2018):
Where two headings read alike, the source gives them in different places.

Columns and labels:
Zymoseptoria tritici = test: Leaf Blotch of Wheat (SEPTTR) fungicidal activity; assay type: in vivo; conditions: for pest or weed control at 121.5 g/ha: Low Volume application, 121.5 g/H
In short: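 Wheat seedlings (Yuma, first leaf emerged) were sprayed to run-off with compound in acetone/water containing Triton X-100 and inoculated with Z. tritici spores before or after treatment. Percent disease control comes from 0–100% severity on treated versus untreated plants.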

Puccinia triticina = test: Wheat Brown Rust (PUCCRT) fungicidal activity; assay type: in vivo; conditions: for pest or weed control at 100 ppm: High Volume application; for pest or weed control at 121.5 g/ha: Low Volume application, 121.5 g/H
In short: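 Yuma wheat seedlings at first-leaf stage sprayed to run-off with acetone/water (Triton X-100) solutions, inoculated with P. triticina spores before or after treatment. Overnight dark dew at 22° C, then greenhouse at 24° C; percent disease control from severity versus untreated plants.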

[1] = 24 h, High Volume application, 100 ppm, wheat leaf blotch, 1 day protectant, read-out: SEPTTR disease control, 1DP (1 Day Protectant)
[2] = 72 h, High Volume application, 100 ppm, wheat leaf blotch, 3 day curative, read-out: SEPTTR disease control, 3DC (3 Day Curative)
[3] = 24 h, 1 day protectant, read-out: PUCCRT disease control, 1DP (1 Day Protectant)
[4] = 72 h, 3 day curative, read-out: PUCCRT disease control, 3DC (3 Day Curative)

Row | SMILES | pest or weed control at 100 ppm (Zymoseptoria tritici; [1]) | pest or weed control at 100 ppm (Zymoseptoria tritici; [2]) | pest or weed control at 100 ppm (Puccinia triticina; [3]) | pest or weed control at 100 ppm (Puccinia triticina; [4]) | melting point | pest or weed control at 121.5 g/ha (Zymoseptoria tritici; 24 h, wheat leaf blotch, 1 day protectant, read-out: SEPTTR disease control, 1DP (1 Day Protectant)) | pest or weed control at 121.5 g/ha (Zymoseptoria tritici; 72 h, wheat leaf blotch, 3 day curative, read-out: SEPTTR disease control, 3DC (3 Day Curative)) | pest or weed control at 121.5 g/ha (Puccinia triticina; [3]) | pest or weed control at 121.5 g/ha (Puccinia triticina; [4]) | pest or weed control at 100 ppm (Zymoseptoria tritici; 24 h, read-out: SEPTTR disease control, 1DP (1 Day Protectant)) | pest or weed control at 100 ppm (Zymoseptoria tritici; 72 h, read-out: SEPTTR disease control, 3DC (3 Day Curative))
1 | COc1ccnc(C(=O)N[C@H]2COCCC[C@@H](CCC(C)C)[C@H](C)OC2=O)c1OC(C)=O [Compound 39] | > 80% | > 80% | > 80% | > 80% | 57 to 62 °C |  |  |  |  |  | 
2 | COc1ccnc(C(=O)N[C@H]2CCOC[C@H](Cc3ccccc3)[C@@H](OCC(C)C)[C@H](C)OC2=O)c1O [Compound 95] | > 80% | < 80% | > 80% | < 80% | 197 to 198 °C |  |  |  |  |  | 
3 | COc1ccnc(C(=O)N[C@H]2CCCC[C@H](CC3CCCC3)[C@@H](OC)[C@H](C)OC2=O)c1O [Compound 125] | < 80% | < 80% | > 80% | < 80% |  |  |  |  |  |  | 
4 | COc1ccnc(C(=O)N[C@H]2COCC[C@H](Cc3ccccc3)[C@@H](Oc3ccccc3)[C@H](C)OC2=O)c1O [Compound 126] | > 80% | < 80% | > 80% | > 80% |  |  |  |  |  |  | 
5 | COc1ccnc(C(=O)N[C@H]2CCCC[C@H](Cc3ccccc3)[C@@H](OC(=O)C(C)C)[C@H](C)OC2=O)c1O [Compound 127] | > 80% | < 80% | > 80% | > 80% |  |  |  |  |  |  | 
6 | COc1ccnc(C(=O)N[C@H]2CCCC[C@H](Cc3ccccc3)[C@@H](Oc3ccccc3)[C@H](C)OC2=O)c1O [Compound 128] | > 80% | < 80% | > 80% | > 80% |  |  |  |  |  |  | 
7 | COc1ccc(C[C@H]2CCOC[C@H](NC(=O)c3nccc(OC)c3O)C(=O)O[C@@H](C)[C@@H]2Oc2ccccc2)cc1 [Compound 129] | > 80% |  | > 80% | > 80% |  |  |  |  |  |  | 
8 | CC[C@H]1CCOC[C@H](NC(=O)c2nccc(OC)c2O)C(=O)O[C@@H](C)[C@@H]1Oc1ccccc1 [Compound 130] | < 80% | > 80% | > 80% | > 80% |  |  |  |  |  |  | 
9 | CC[C@H]1CCOC[C@H](NC(=O)c2nccc(OC)c2O)C(=O)O[C@@H](C)[C@@H]1OCC(C)C [Compound 131] |  | < 80% | > 80% | > 80% |  |  |  |  |  |  | 
10 | COc1ccnc(C(=O)N[C@H]2COCC[C@H](Cc3ccc(F)cc3)[C@@H](Oc3ccccc3)[C@H](C)OC2=O)c1O [Compound 132] | > 80% |  | > 80% | > 80% |  |  |  |  |  |  | 
11 | COc1ccnc(C(=O)N[C@H]2COCC[C@H](Cc3ccc(F)cc3)[C@@H](OCC3CC3)[C@H](C)OC2=O)c1O [Compound 133] | < 80% | < 80% | > 80% | > 80% |  |  |  |  |  |  | 
12 | COc1ccnc(C(=O)N[C@H]2COCC[C@H](Cc3ccc(F)cc3)[C@@H](OC(=O)C(C)C)[C@H](C)OC2=O)c1O [Compound 134] | > 80% | > 80% | > 80% | < 80% |  |  |  |  |  |  | 
13 | CC[C@H]1CCOC[C@H](NC(=O)c2nccc(OC)c2O)C(=O)O[C@@H](C)[C@@H]1OC(=O)c1ccccc1 [Compound 135] | > 80% | > 80% | > 80% | > 80% |  |  |  |  |  |  | 
14 | CC[C@H]1CCOC[C@H](NC(=O)c2nccc(OC)c2O)C(=O)O[C@@H](C)[C@@H]1OC(=O)C1CC1 [Compound 136] |  | < 80% | > 80% | > 80% |  |  |  |  |  |  | 
15 | CCC[C@H]1CCCC[C@H](NC(=O)c2nccc(OC)c2OCOC(C)=O)C(=O)O[C@@H](C)[C@@H]1OCC(C)C [compound 30, ((2-(((3S,8S,9R,10S)-9-isobutoxy-10-methyl-2-oxo-8-propyloxecan-3-yl)carbamoyl)-4-methoxypyridin-3-yl)oxy)methyl acetate] |  |  |  |  |  | < 80% | < 80% | > 80% | < 80% |  | 
16 | CCC[C@H]1CCCC[C@H](NC(=O)c2nccc(OC)c2O)C(=O)O[C@@H](C)[C@@H]1OCC(C)C [compound 105, 3-hydroxy-N-((3S,8S,9R,10S)-9-isobutoxy-10-methyl-2-oxo-8-propyloxecan-3-yl)-4-methoxypicolinamide] |  |  | < 80% | < 80% |  |  |  |  |  | < 80% | < 80%
